Assay results reported in patent publication US11458212B2, “Molecular imaging of cancer cells in vivo” (H. Lee Moffitt Cancer Center and Research Institute, Inc., priority 2011, dated 2022).
Entries after “also recorded” stand apart in the source; their conditions may differ. Where a SMILES comes first, the peptide text is derived from it. Primed or numbered codes have the meaning given here. The star is where a group is joined. Adapalene = Adapaleneyl (acyl group from adapalene), COc1ccc(-c2ccc3cc(C(=O)*)ccc3c2)cc1C12CC3CC(CC(C3)C1)C2; Propyl(2R-PamO,3-PamO) = CCCCCCCCCCCCCCCC(=O)OC[C@H](C*)OC(=O)CCCCCCCCCCCCCCC; X2 = CCCCCCCCCCCCCCCC(=O)OCC(C*)OC(=O)CCCCCCCCCCCCCCC; X1 = CC(=O)NCCCOCCOCCOCCCNC(=O)COCC(=O)*; Palmitoyl = CCCCCCCCCCCCCCCC(=O)*; Ahx = NCCCCCC(=O)O; Dhc(Pam)2″ = lipid

Assays:
TLR2 = TLR2 (Homo sapiens, UniProt O60603); test: In vitro TLR2 functional bioassay (NF-κB luciferase, HEK293/hTLR2 cells); format: cell-based; design: host or cells: HEK293 stably transfected with pUNO-hTLR2, transiently transfected with the pNifty-Luc reporter; conditions: for EC50: log(agonist) vs. normalized response, doses 0.01 ng/mL to 1 μg/mL, read-out: EC50; for TLR2 Agonist Activity: screened at 1 μg/mL; for fold of enhancement vs SAA at 1 μg/mL / fold of enhancement vs SAA at 10 μg/mL: compound at 1 μg/mL
Description: In Vitro TLR2 Functional Bioassay The in vitro TLR2 functional bioassay was developed and optimized for use in screening soluble compound libraries to identify both TLR2 agonists and antagonists. In this study, the TLR2 functional bioassay was used as a fast high throughput screening to identify TLR2 agonist ligands by measuring the inducing activity of NF-κB. HEK293/hTLR2 cells, highly overexpressing human TLR2, were used along with the parental HEK293, cells as a negative control. Cells were seeded at a density of 40,000 per well using a WellMate® Microplate dispenser (Thermo Fischer Scientific/Matrix) in black 96-well plates with opaque white wells (Perkin Elmer Wallac, Waltham, Mass.) and then incubated at 37° C. On day 2, the cells were transiently transfected with pNifty-Luc (InvivoGen), an NF-κB inducible reporter plasmid expressing the luciferase reporter gene (Zuany-Amorim, C., J., et al. Nat Rev Drug Discov, 2002. 1(10):797-807), using an optimized 4:1 ratio by volume of Fugene® HD Transfection Reagent (Roche Applied Science, Indianapolis, Ind.) to pNifty-Luc plasmid DNA (1 μg/mL). […] On day 4 after 24 hrs of peptide stimulation, luciferase induced activity by the induction of NF-κB was measured. Media was aspirated from the wells using an ELx405 Select plate washer (BioTek, Winooski, Vt.), 150 μg/mL D-luciferin (Gold Biotechnology, St. Louis, Mo.) was dispensed using the microplate dispensor; the plates were incubated at 37° C. for 5 min. The luminescence intensity was measured using the standard luminescence protocol on a Victor™ X4 plate-reader equipped with a plate stacker for readout of multiple plates at a time (PerkinElmer, Waltham, Mass.). For each in vitro TLR2 bioassay, at least three different experiments were performed in triplicate (n=3+). Data were analyzed with GraphPad Prism software and curves were generated with the appropriate nonlinear fit regression analysis.
The in vitro TLR2 functional bioassay was developed and optimized for use in high-throughput screening of soluble compound libraries to identify both TLR2 agonists and antagonists. The bioassay measures the induction of NF-κB signaling via TLR2 in HEK-293/hTLR2 cells and parental HEK-293 cells as a negative control. Cells were seeded at a density of 40,000 per well using a WellMate Microplate dispenser (Thermo Fisher Scientific/Matrix) in black 96-well plates with opaque white wells (PerkinElmer, Waltham, Mass.) and then incubated at 37° C. On day 2, the cells were transiently transfected with pNifty-Luc (InvivoGen, San Diego, Calif.), an NF-κB inducible reporter plasmid expressing the luciferase reporter gene[28] using an optimized 4:1 ratio by volume of FugeneHD Transfection Reagent (Promega, Madison, Wis.) to pNifty-Luc plasmid DNA (1 μg/mL). […] […] On day 4 after 24 h of peptide stimulation, luciferase induced activity by the induction of NF-κB was measured. Media was aspirated from the wells using an ELx405 Select CW plate washer (BioTek, Winooski, Vt.), 150 μg/mL D-luciferin (Gold Biotechnology, St. Louis, Mo.) was dispensed using the microplate dispensor; the plates were incubated at 37° C. for 5 min. The luminescence intensity was measured using the standard luminescence protocol on a Victor X4 Multilabel plate reader equipped with a plate stacker for readout of multiple plates at a time (PerkinElmer, Waltham, Mass.). […] Data were analyzed with GraphPad Prism software and curves were generated with the appropriate nonlinear fit regression analysis.

[1] = test system: Trp1455/9M-specific CD8 T cells; test: In vivo cellular immune response assay (immune adjuvant); design: species or system B6 mice; conditions: for in vivo immune adjuvant activity (generation and persistence of antigen-specific CD8 T cells): compared with Pam2CSK4 and Pam3CSK4
Method: To assess the efficacy of T-02 as an immune adjuvant, mice were immunized i.v. with a mixture of 100 μg optimized Trp1455/9M peptide (Guevara-Patino, J. A., et al. J Clin Invest, 2006. 116(5):1382-90), 50 μg anti-CD40 mAb (Clone; FGk-45.5), and 50 μg TLR-2 peptide (T-02, Pam2CSK4, or Pam3CSK4). […] The response of tetramer+ CD8 T cells in the blood was measured on day 7, 21, and 34 by tetramer staining. For tetramer staining, peripheral blood was taken from the submandibular vein and treated briefly with ammonium chloride buffer to lyse red blood cells. Blood cells were stained with FITC-conjugated anti-MHC class II, PerCP Cy5.5-conjugated CD8a (both from eBioscience, San Diego, Calif.), and phycoerythrin-conjugated Trp1455/9M/H-2D^b tetramers (provided by the NIH tetramer Facility, Emory University, Atlanta Ga.) for 40 min in ice. Fluorescence was evaluated using a FACSCalibur™ flow cytometer (BD Biosciences) and analyzed using FlowJo software.
C57BL/6 (B6) mice 6-8 weeks old were purchased from Charles River (Wilmington, Mass.). To assess the efficacy of 10 as an immune adjuvant, B6 mice were immunized i.v. with a mixture (in a volume of 200 μl) of 100 μg optimized Trp1455/9M peptide,[10c] 50 μg anti-CD40 monoclonal antibody (Clone; FGk-45.5), and 50 μg TLR2 agonist (10, Pam2CSK4, or Pam3CSK4). […] The response of tetramer positive CD8 T cells in the blood was measured on day 7, 21 and 34 by tetramer staining. For tetramer staining, peripheral blood was taken from the submandibular vein and treated briefly with ammonium chloride buffer to lyse red blood cells. Blood cells were stained with FITC-conjugated anti-MHC class II, PerCP Cy5.5-conjugated CD8a, and phycoerythrin-conjugated Trp1455/9M/H-2D^b tetramers for 40 min in ice. Fluorescence was evaluated using a FACSCalibur flow cytometer (BD Biosciences) and analyzed using FlowJo software.

TLR2, sequence (O60603 21-784): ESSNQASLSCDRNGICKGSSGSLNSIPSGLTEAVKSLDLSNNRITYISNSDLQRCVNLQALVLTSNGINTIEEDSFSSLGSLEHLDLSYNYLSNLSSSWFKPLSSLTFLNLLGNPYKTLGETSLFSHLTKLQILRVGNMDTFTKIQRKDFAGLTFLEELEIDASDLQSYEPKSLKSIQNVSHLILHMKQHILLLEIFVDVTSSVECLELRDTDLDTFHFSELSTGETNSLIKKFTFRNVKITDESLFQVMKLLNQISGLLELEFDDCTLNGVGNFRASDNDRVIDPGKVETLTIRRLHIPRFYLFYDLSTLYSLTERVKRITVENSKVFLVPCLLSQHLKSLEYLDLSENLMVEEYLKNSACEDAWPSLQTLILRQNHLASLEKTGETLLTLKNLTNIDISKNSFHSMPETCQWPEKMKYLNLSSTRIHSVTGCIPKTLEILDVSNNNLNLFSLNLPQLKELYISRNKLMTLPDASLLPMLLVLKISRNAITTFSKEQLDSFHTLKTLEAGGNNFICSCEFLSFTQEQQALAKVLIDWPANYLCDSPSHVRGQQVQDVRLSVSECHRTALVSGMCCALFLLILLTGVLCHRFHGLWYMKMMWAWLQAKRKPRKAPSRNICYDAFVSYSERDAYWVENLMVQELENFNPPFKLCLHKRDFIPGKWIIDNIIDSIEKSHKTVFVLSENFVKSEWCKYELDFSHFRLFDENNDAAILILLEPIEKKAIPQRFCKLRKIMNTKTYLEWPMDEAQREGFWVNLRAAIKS
TLR2, sequence (Q9Y2C9 32-796 partner): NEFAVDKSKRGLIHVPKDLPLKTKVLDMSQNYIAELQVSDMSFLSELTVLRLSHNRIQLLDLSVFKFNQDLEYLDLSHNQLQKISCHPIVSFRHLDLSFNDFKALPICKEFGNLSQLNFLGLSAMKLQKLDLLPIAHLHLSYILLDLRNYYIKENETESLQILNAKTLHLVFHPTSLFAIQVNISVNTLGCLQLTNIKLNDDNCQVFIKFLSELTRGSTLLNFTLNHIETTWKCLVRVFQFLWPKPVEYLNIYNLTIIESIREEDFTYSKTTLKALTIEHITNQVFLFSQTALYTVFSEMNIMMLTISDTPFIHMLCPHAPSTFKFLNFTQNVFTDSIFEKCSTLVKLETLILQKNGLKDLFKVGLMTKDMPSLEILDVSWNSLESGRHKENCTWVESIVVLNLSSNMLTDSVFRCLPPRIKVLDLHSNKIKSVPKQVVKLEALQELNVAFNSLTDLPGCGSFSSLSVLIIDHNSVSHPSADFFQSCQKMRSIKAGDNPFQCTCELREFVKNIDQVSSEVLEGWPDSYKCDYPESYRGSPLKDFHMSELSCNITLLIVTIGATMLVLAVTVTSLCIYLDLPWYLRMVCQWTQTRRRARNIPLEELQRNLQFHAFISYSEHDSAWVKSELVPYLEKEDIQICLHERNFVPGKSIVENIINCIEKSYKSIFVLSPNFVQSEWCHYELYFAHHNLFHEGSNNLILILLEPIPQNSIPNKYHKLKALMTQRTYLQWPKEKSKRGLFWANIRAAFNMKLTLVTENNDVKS

Compound: CCCCCCCCCCCCCCCC(=O)OC[C@H](CSC[C@H](NC(=O)COCC(=O)NCCCOCCOCCOCCCNC(C)=O)C(=O)NCC(=O)N[C@@H](CC(N)=O)C(=O)N[C@@H](CC(N)=O)C(=O)N[C@@H](CC(=O)O)C(=O)N[C@@H](CCC(=O)O)C(=O)N[C@@H](CO)C(=O)N[C@@H](CC(N)=O)C(=O)N[C@H](C(=O)N[C@@H](CO)C(=O)N[C@@H](Cc1ccccc1)C(=O)N[C@@H](CCCCN)C(=O)N[C@@H](CCC(=O)O)C(=O)N[C@@H](CCCCN)C(N)=O)[C@@H](C)CC)OC(=O)CCCCCCCCCCCCCCC [Compound 3] (X1-C(Propyl(2R-PamO,3-PamO))GNNDESNISFKEK-NH2)
- EC50 (TLR2): 0.0556 µM
- TLR2 Agonist Activity (TLR2): Yes

Compound: CCCCCCCCCCCCCCCC(=O)OCC(CSCC(NC(=O)COCC(=O)NCCCOCCOCCOCCCNC(C)=O)C(=O)NC(CO)C(=O)NC(CCCNC(=N)N)C(=O)NC(Cc1ccccc1)C(=O)NC(CC(=O)O)C(=O)NC(CCC(=O)O)C(=O)NC(CC(=O)O)C(=O)NC(CC(=O)O)C(=O)NC(CC(C)C)C(=O)NC(CCC(=O)O)C(N)=O)OC(=O)CCCCCCCCCCCCCCC (centres unmarked) [Compound 8] (X1-C(X2)SRFDEDDLE-NH2; configuration not given here)
- fold of enhancement vs SAA at 1 μg/mL (TLR2): 11 fold
- fold of enhancement vs SAA at 10 μg/mL (TLR2): 4.2 fold

Compound: CCCCCCCCCCCCCCCC(=O)OC[C@H](CSC[C@H](NC(=O)COCC(=O)NCCCOCCOCCOCCCNC(C)=O)C(=O)NCC(=O)N[C@@H](CO)C(=O)N[C@@H](CCC(N)=O)C(=O)N[C@@H](CC(N)=O)C(=O)N[C@@H](CC(C)C)C(=O)N[C@@H](C)C(=O)N[C@@H](CO)C(=O)N[C@@H](CC(C)C)C(=O)N[C@@H](CCC(=O)O)C(=O)N[C@@H](CCC(=O)O)C(N)=O)OC(=O)CCCCCCCCCCCCCCC [Compound 9] (X1-C(Propyl(2R-PamO,3-PamO))GSQNLASLEE-NH2)
- fold of enhancement vs SAA at 1 μg/mL (TLR2): 13 fold
- fold of enhancement vs SAA at 10 μg/mL (TLR2): 4.8 fold
- EC50 (TLR2): 0.0784 µM

Compound: CCCCCCCCCCCCCCCC(=O)OC[C@H](CSC[C@H](NC(=O)COCC(=O)NCCCOCCOCCOCCCNC(C)=O)C(=O)NCC(=O)NC(CO)C(=O)NCCCOCCOCCOCCCNC(=O)COCC(N)=O)OC(=O)CCCCCCCCCCCCCCC (stereo partly drawn) [Compound 10, Ac-PEGO-Dhc(Pam)2-Gly-Ser-PEGO-NH2]
- in vivo immune adjuvant activity (generation and persistence of antigen-specific CD8 T cells) [1]: stimulated the immune system by generation and persistence of antigen-specific CD8 T cells; also recorded: exhibited activity similar to the other known TLR2 agonists; also recorded: induced an in vivo immune response comparable to the currently available TLR2 synthetic agonists
- in vivo immune adjuvant activity (generation and persistence of antigen-specific CD8 T cells) ([1]; listed as T-02): exhibited similar in vivo activity comparable to the TLR-2 agonists, Pam2CSK4 and Pam3CSK4
- fluorescence of stained tetramer positive CD8 T cells ([1]; day 7): High fluorescence
- response rate of the tetramer positive CD8 T cells ([1]; day 7): 100%
- maximum amount of fluorescently stained tetramer positive CD8 T cells ([1]; day 7, peripheral blood, i.v. immunization, n=3): 49.6%
- tetramer positive CD8 T cells ([1]; day 21): 25.7%
- tetramer positive CD8 T cells ([1]; day 34): 12.7%
- fold of enhancement vs SAA at 1 μg/mL (TLR2): 14 fold
- fold of enhancement vs SAA at 10 μg/mL (TLR2): 5.2 fold

Compound: Ac-Aha-Dhc(Pam)2-Gly-Asn-Asn-Asp-Glu-Ser-Asn-Ile-Ser-Phe-Lys-Glu-Lys-NH2 ({Ac-Ahx-Dhc(Pam)2″}-GNNDESNISFKEK-NH2) [Compound 4]
- TLR2 Agonist Activity (TLR2): Yes

Compound: Ac-Aun(C11)-Dhc(Pam)2-Gly-Asn-Asn-Asp-Glu-Ser-Asn-Ile-Ser-Phe-Lys-Glu-Lys-NH2 ({Ac-Aun(C11)-Dhc(Pam)2″}-GNNDESNISFKEK-NH2) [Compound 6]
- TLR2 Agonist Activity (TLR2): Yes

Compound: Adapalene-Dhc(Pam)2-Gly-Asn-Asn-Asp-Glu-Ser-Asn-Ile-Ser-Phe-Lys-Glu-Lys-NH2 ({Adapalene-Dhc(Pam)2″}-GNNDESNISFKEK-NH2) [Compound 5]
- TLR2 Agonist Activity (TLR2): Yes

Compound: Fluorescein-Dhc(Pam)2-Gly-Asn-Asn-Asp-Glu-Ser-Asn-Ile-Ser-Phe-Lys-Glu-Lys-NH2 ({Fluorescein-Dhc(Pam)2″}-GNNDESNISFKEK-NH2) [Compound 2]
- TLR2 Agonist Activity (TLR2): Yes

Compound: Pam-Dhc(Pam)2-Gly-Asn-Asn-Asp-Glu-Ser-Asn-Ile-Ser-Phe-Lys-Glu-Lys-NH2 ({Palmitoyl-Dhc(Pam)2″}-GNNDESNISFKEK-NH2) [Compound 1]
- TLR2 Agonist Activity (TLR2): Yes

Compound: Tretinoin-Dhc(Pam)2-Gly-Asn-Asn-Asp-Glu-Ser-Asn-Ile-Ser-Phe-Lys-Glu-Lys-NH2 [Compound 7]
- TLR2 Agonist Activity (TLR2): Yes

Compound: Trp1455/9M: Trp1455/9M (TAPDNLGYM), H2 Db-optimized peptide from mouse tyrosinase-related protein-1, epitope for CD8 T cells [reference compound]
- TLR2 agonist activity of vaccine peptide (TLR2): not a TLR2 agonist
